Reference: patent publication US20030187007A1, “Inhibitors of protein kinase for the treatment of disease” (priority 2001, published 2003)
Structures can show the parent of a compound that is named as a salt.

Tests used:
[1] = target: CDK2 complexed with cyclin A (Homo sapiens, UniProt P24941); experiment: Cyclin dependent kinase activity assay, phosphorylation of synthetic peptide PKTPKKAKKLRRR; type: biochemical; conditions: 0.1 mM ATP, read-out: CDK 2 Activity*
Description: (§1) The assay of cyclin dependent kinase activity was determined by monitoring the phosphorylation of a synthetic peptide, PKTPKKAKKLRRR. The assay mixture contained 0.1 mM cold ATP, ^33P-γ-ATP (2000-4000 cpm/μL), 0.1 mM peptide, 1 mM DTT, and 10 mM MgCl2 in 100 mM HEPES buffer pH 7.4. The assay mixture, along with inhibitor and CDK enzyme (0.3-0.4 U/mL; either CDK5 complexed with p25, CDK2 complexed with complexed with cyclin A), was mixed together in a microtiter plate in a final volume of 40 μL, sealed and incubated for 2 hours at 30° C. Following incubation, a 15 μL aliquot was added to a Whatman P81 filtration plate containing 100 μL 0.5% phosphoric acid. This mixture was allowed to stand for 5 minutes prior to filtration on a vacuum manifold. The filter plate was washed with 5 successive additions of 300 μL 0.5% phosphoric acid. The filtration plate was air dried for 10 minutes before sealing the bottom. After addition of scintillation fluid to the sealed plate, phosphorylated peptide was quantified in a scintillation counter.

CDK5 complexed with p25 = CDK5 complexed with p25 (Homo sapiens, UniProt Q00535); experiment: as above; type: biochemical; conditions: CDK5 complexed with p25, 0.1 mM ATP; read-out: CDK 5 Activity*
Chain of CDK5 complexed with p25 (Q00535 whole entry): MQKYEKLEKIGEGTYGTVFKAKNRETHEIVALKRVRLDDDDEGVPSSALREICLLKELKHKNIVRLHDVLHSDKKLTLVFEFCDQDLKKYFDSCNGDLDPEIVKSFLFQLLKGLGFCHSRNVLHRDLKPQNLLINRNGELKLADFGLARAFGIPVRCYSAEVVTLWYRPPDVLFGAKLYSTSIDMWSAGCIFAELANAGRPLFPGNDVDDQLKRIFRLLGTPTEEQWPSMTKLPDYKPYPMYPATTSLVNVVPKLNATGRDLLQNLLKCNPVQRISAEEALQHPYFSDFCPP
Chain of CDK5 complexed with p25 (Q15078 99-307 partner limits assumed): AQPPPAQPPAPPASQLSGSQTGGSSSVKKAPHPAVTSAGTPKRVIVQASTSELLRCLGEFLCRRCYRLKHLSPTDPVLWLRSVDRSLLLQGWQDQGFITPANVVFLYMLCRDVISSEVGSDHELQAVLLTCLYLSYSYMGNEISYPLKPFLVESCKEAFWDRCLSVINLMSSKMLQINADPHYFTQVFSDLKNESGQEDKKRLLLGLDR
Description: as §1

IC50 [1] [nM]	IC50 (CDK5 complexed with p25) [nM]	Structure (SMILES)
2000 to 5000	500 to 2000	NC(=S)N/N=C/c1cc(Br)ccc1O [Example 2, 5-Bromosalicylaldehyde thiosemicarbazone]
2000 to 5000	500 to 2000	NC(=O)N/N=C/c1cc(Br)ccc1O [Example 3, 5-Bromosalicylaldehyde semicarbazone hydrochloride]
500 to 2000	< 500	NC(=S)N/N=C/c1cc(-c2ccccc2)ccc1O [Example 4, 5-Phenylsalicylaldehyde thiosemicarbazone]
500 to 2000	< 500	NC(=O)N/N=C/c1cc(-c2ccccc2)ccc1O [Example 5, 5-Phenylsalicylaldehyde semicarbazone hydrochloride]
2000 to 5000	2000 to 5000	COc1cccc(-c2ccc(O)c(/C=N/NC(N)=S)c2)c1 [Example 6, 5-(3-Methoxyphenyl)salicylaldehyde thiosemicarbazone]
> 5000	2000 to 5000	N#Cc1cccc(-c2ccc(O)c(/C=N/NC(N)=S)c2)c1 [Example 7, 5-(3-Cyanophenyl)salicylaldehyde thiosemicarbazone]
> 5000	> 5000	NC(=S)N/N=C/c1cc(-c2cccc(CO)c2)ccc1O [Example 8, 5-(3-Hydroxymethylphenyl)salicylaldehyde thiosemicarbazone]
2000 to 5000	500 to 2000	NC(=O)N/N=C/c1cc(-c2cccc(CO)c2)ccc1O [Example 9, 5-(3-Hydroxymethylphenyl)salicylaldehyde semicarbazone hydrochloride]
> 5000	> 5000	NC(=S)N/N=C/c1cc(-c2ccc(CO)cc2)ccc1O [Example 10, 5-(4-Hydroxymethylphenyl)salicylaldehyde thiosemicarbazone]
> 5000	2000 to 5000	NC(=S)N/N=C/c1cc(-c2ccc([N+](=O)[O-])cc2)ccc1O [Example 11, 5-(4-Nitrophenyl)salicylaldehyde thiosemicarbazone]
> 5000	500 to 2000	COC(=O)c1cccc(-c2ccc(O)c(/C=N/NC(N)=S)c2)c1 [Example 12, 5-(3-Methoxycarbonylphenyl)salicylaldehyde thiosemicarbazone]
2000 to 5000	> 5000	COC(=O)c1cccc(-c2ccc(O)c(/C=N/NC(N)=O)c2)c1 [Example 13, 5-(3-Methoxycarbonylphenyl)salicylaldehyde semicarbazone hydrochloride]
2000 to 5000	500 to 2000	COc1ccc(-c2ccc(O)c(/C=N/NC(N)=S)c2)cc1F [Example 14, 5-(3-Fluoro-4-methoxyphenyl)salicylaldehyde thiosemicarbazone]
500 to 2000	500 to 2000	NC(=S)N/N=C/c1cc(-c2cccc(F)c2)ccc1O [Example 15, 5-(3-Fluorophenyl)salicylaldehyde thiosemicarbazone]
2000 to 5000	500 to 2000	NC(=S)N/N=C/c1cc(-c2ccc(F)cc2)ccc1O [Example 16, 5-(4-Fluorophenyl)salicylaldehyde thiosemicarbazone]
500 to 2000	2000 to 5000	NC(=S)N/N=C/c1cc(-c2cccc(C(=O)O)c2)ccc1O [Example 17, 5-(3-Carboxyphenyl)salicylaldehyde thiosemicarbazone]
500 to 2000	< 500	NC(=O)N/N=C/c1cc(-c2cccc(C(=O)O)c2)ccc1O [Example 18, 5-(3-Carboxyphenyl)salicylaldehyde semicarbazone hydrochloride]
> 5000	< 500	NC(=S)N/N=C/c1cc(-c2ccc(C(=O)O)cc2)ccc1O [Example 19, 5-(4-Carboxyphenyl)salicylaldehyde thiosemicarbazone]
500 to 2000	< 500	NC(=S)N/N=C/c1cc(-c2cccc(O)c2)ccc1O [Example 20, 5-(3-Hydroxyphenyl)salicylaldehyde thiosemicarbazone]
< 500	< 500	NC(=S)N/N=C/c1cc(-c2ccc(O)cc2)ccc1O [Example 21, 5-(4-Hydroxyphenyl)salicylaldehyde thiosemicarbazone]
< 500	< 500	NC(=S)N/N=C/c1cc(-c2ccc(O)cc2O)ccc1O [Example 27, 5-(2,4-Dihydroxyphenyl)salicylaldehyde thiosemicarbazone]
500 to 2000	2000 to 5000	NC(=S)N/N=C/c1cc(-c2ccc(O)cc2)c(O)cc1O [Example 28, 4-Hydroxy-5-(4-hydroxyphenyl)salicylaldehyde thiosemicarbazone]
500 to 2000	> 5000	NC(=O)N/N=C/c1cc(-c2ccc(O)cc2)c(O)cc1O [Example 29, 4-Hydroxy-5-(4-hydroxyphenyl)salicylaldehyde semicarbazone hydrochloride]

IC50 [1] [nM]	IC50 (CDK5 complexed with p25) [nM]	Structure (SMILES)
2000 to 5000	< 500	NC(=S)N/N=C/c1cc(-c2ccncc2)ccc1O [Example 30, 5-(4-Pyridyl)salicylaldehyde thiosemicarbazone]
500 to 2000	< 500	NC(=S)N/N=C/c1cc(-c2cccnc2)ccc1O [Example 31, 5-(3-Pyridyl)salicylaldehyde thiosemicarbazone]
2000 to 5000	2000 to 5000	NC(=S)N/N=C/c1cc(-c2cncnc2)ccc1O [Example 32, 5-(5-Pyrimidyl)salicylaldehyde thiosemicarbazone]
< 500	500 to 2000	NC(=S)N/N=C/c1cc(-c2cccs2)ccc1O [Example 33, 5-(2-Thienyl)salicylaldehyde thiosemicarbazone]
< 500	500 to 2000	NC(=S)N/N=C/c1cc(-c2ccsc2)ccc1O [Example 34, 5-(3-Thienyl)salicylaldehyde thiosemicarbazone]
500 to 2000	> 5000	NC(=S)N/N=C/c1cc(-c2ccc(Cl)s2)ccc1O [Example 35, 5-[2-(5-Chloro-thienyl)]salicylaldehyde thiosemicarbazone]
> 5000	500 to 2000	COC(=O)/C=C/c1ccc(O)c(/C=N/NC(N)=S)c1 [Example 37, Methyl (3-formyl-4-hydroxy)cinnamate, thiosemicarbazone]
< 500	< 500	NC(=S)N/N=C/c1cc(/C=C/C(=O)O)ccc1O [Example 38, 3-Formyl-4-hydroxycinnamic acid, thiosemicarbazone]
< 500	< 500	NC(=S)N/N=C/c1cc(CCC(=O)O)ccc1O [Example 40, 3-(3-Formyl-4-hydroxyphenyl)propionic acid, thiosemicarbazone]
< 500	< 500	NC(=O)N/N=C/c1c(O)ccc2ccccc12 [Example 41, 2-[(2-Hydroxy-1-naphthyl)methylidene]hydrazine-1-carbamide hydrochloride]
< 500	< 500	NC(=S)N/N=C/c1cc2ccc(O)cc2cc1O [Example 43]
> 5000	2000 to 5000	Nc1nccc(-c2c(O)ccc3ccccc23)n1 [Example 46, 2-Amino-4-[1-(2-hydroxynaphthyl)]pyrimidine]
< 500	< 500	Cc1cc(-c2cc(-c3ccc(O)cc3)ccc2O)nc(N)n1 [Example 47, 3-(2-Amino-6-methyl-pyrimidin-4-yl)-biphenyl-4,4′-diol]
< 500	< 500	Nc1ccc(-c2cc(-c3ccc(O)cc3)ccc2O)nc1 [Example 48, 3-(5-Amino-pyridin-2-yl)-biphenyl-4,4′-diol]
< 500	< 500	Nc1cccc(-c2cc(-c3ccc(O)cc3)ccc2O)n1 [Example 49, 3-(6-Amino-pyridin-2-yl)-biphenyl-4,4′-diol]
< 500	< 500	COc1cc(-c2cc(-c3ccc(O)cc3)ccc2O)nc(N)n1 [Example 50, 3-(2-Amino-6-methoxy-pyrimidin-4-yl)-biphenyl-4,4′-diol]
< 500	< 500	Nc1cnc(-c2cc(-c3ccc(O)cc3)ccc2O)nc1N [Example 51, 3-(4,5-Diamino-pyrimidin-2-yl)-biphenyl-4,4′-diol]
< 500	< 500	Nc1cc(-c2cc(-c3ccc(O)cc3)ccc2O)nc(N)n1 [Example 52, 3-(2,6-Diamino-pyrimidin-4-yl)-biphenyl-4,4′-diol]
< 500	–	Cc1cc(-c2cc(-c3ccnc(N)n3)ccc2O)nc(N)n1 [Example 72]
< 500	–	Nc1nccc(-c2ccc(O)c(-c3cc(Cl)nc(N)n3)c2)n1 [Example 73, 2-(2-Amino-4-chloro-pyrimidin-6-yl)-4-(2-aminopyrimidin-4-yl)-phenol]
< 500	–	Nc1cc(-c2cc(-c3ccnc(N)n3)ccc2O)nc(N)n1 [Example 74, 2-(2,4-Diamino-pyrimidin-6-yl)-4-(2-aminopyrimidin-4-yl)-phenol]
< 500	–	Nc1nc(-c2cc(-c3ccc(O)cc3)ccc2O)cc(N2CCCC2CO)n1 (stereo not drawn) [Example 79, 3-[2-Amino-6-(2R-hydroxymethyl-pyrrolidin-1-yl)-pyrimidin-4-yl]-biphenyl-4.4′-diol]

Structure (SMILES)	IC50 [1] [nM]	IC50 (CDK5 complexed with p25) [nM]
NC(=S)N/N=C/c1c(O)ccc2ccccc12 [Example 42, 2-[(2-Hydroxy-1-naphthyl)methylidene]hydrazine-1-carbothioamide]	< 500	< 500
